In this experiment the target is T1, human GalNAc-T2 (Homo sapiens, UniProt Q10471).
T1 construct: gene GALNT2; full coding region, untagged (pH7WG2:GNT2), stably expressed in Nicotiana benthamiana; microsomal fraction; ~65 kDa
Description: GalNAc transfer to hCG-beta peptide; RP-HPLC, MALDI-TOF MS, radioactive assay. In kind it is biochemical. Conditions: donor with acceptor hCG-beta peptide 113-136 (500 ug in 100 ul); 10 mM MnCl2, 25 mM Tris HCl pH 7.4, 0.25% Triton X-100, 37 C; microsomes; control-plant microsomes as negative control; also 3H-labelle.

T1 sequence (Q10471 whole entry): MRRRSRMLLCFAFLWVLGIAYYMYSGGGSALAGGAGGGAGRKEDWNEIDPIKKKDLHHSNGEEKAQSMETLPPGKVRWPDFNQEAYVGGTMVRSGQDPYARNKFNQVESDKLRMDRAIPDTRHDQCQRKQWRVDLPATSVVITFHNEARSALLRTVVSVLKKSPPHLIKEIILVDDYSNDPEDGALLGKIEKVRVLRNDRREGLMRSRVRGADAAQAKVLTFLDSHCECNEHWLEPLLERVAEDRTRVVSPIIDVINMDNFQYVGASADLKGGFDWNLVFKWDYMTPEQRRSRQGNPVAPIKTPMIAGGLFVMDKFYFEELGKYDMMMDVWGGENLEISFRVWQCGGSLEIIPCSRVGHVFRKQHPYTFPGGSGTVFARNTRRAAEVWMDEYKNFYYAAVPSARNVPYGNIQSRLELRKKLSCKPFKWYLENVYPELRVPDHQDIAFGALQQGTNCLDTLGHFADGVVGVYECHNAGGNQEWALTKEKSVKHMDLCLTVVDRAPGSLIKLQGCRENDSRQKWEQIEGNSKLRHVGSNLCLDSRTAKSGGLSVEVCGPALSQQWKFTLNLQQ

Regarding `CC(=O)N[C@H]1[C@@H](OP(=O)(O)OP(=O)(O)OC[C@H]2O[C@@H](n3ccc(=O)[nH]c3=O)[C@H](O)[C@@H]2O)O[C@H](CO)[C@H](O)[C@@H]1O` [UDP-GalNAc], the “GalNAc transfer to hCG-beta peptide; RP-HPLC, MALDI-TOF MS, radioactive assay” value is recorded as “plant microsomal fraction as an enzyme source, UDP-GalNAc as the donor”.

The values are drawn from PMC2936419, “Engineering of N. benthamiana L. plants for production of N-acetylgalactosamine-glycosylated proteins - towards development of a plant-based platform for production of protein therapeutics with mucin type O-glycosylation” (BMC Biotechnology, 2010).
